Experimental data taken from ChEMBL document CHEMBL1649287, “Postantibiotic effect of ceftaroline against gram-positive organisms” (2009).
Converted amounts (≈) assume the structure as drawn.

What was measured:
Format in all cases: functional
Staphylococcus aureus [1] = test: Antimicrobial activity against methicillin-resistant, vancomycin-susceptible Staphylococcus aureus vs1 assessed as time required to induce sub-MIC effect at 0.2 times MIC after 1 hr by plate counting method; details: vs1, 1 h
Enterococcus faecalis [2] = test: Antimicrobial activity against vancomycin-sensitive Enterococcus faecalis 20 assessed as time required to induce sub-MIC effect at 0.2 times MIC after 1 hr by plate counting method; details: Enterococcus faecalis, 20, 1 h
Enterococcus faecalis [3] = test: Antimicrobial activity against vancomycin-sensitive Enterococcus faecalis ATCC 29212 assessed as time required to induce sub-MIC effect at 0.2 times MIC after 1 hr by plate counting method; details: ATCC 29212, 1 h
Enterococcus faecalis [4] = test: Antimicrobial activity against vancomycin-resistant Enterococcus faecalis 266 assessed as time required to induce sub-MIC effect at 0.2 times MIC after 1 hr by plate counting method; details: Enterococcus faecalis, 266, 1 h
Streptococcus pneumoniae [5] = test: Antimicrobial activity against Penicillin-susceptible Streptococcus pneumoniae s502 assessed as time required to induce post antibiotic sub-MIC effect at 0.2 times MIC after 1 hr by plate counting method; details: s502, 1 h
Streptococcus pneumoniae [6] = test: Antimicrobial activity against Penicillin-, erythromycin-resistant Streptococcus pneumoniae 37 assessed as time required to induce post antibiotic sub-MIC effect at 0.2 times MIC after 1 hr by plate counting method; details: Streptococcus pneumoniae, 37, 1 h
Staphylococcus aureus [7] = test: Antimicrobial activity against methicillin-susceptible, vancomycin-susceptible Staphylococcus aureus sox1 assessed as time required to induce post antibiotic sub-MIC effect at 0.2 times MIC after 1 hr by plate counting method; details: sox1, 1 h
Staphylococcus aureus [8] = test: Antimicrobial activity against methicillin-resistant, vancomycin-intermediate Staphylococcus aureus 510 assessed as time required to induce post antibiotic sub-MIC effect at 0.2 times MIC after 1 hr by plate counting method; details: Staphylococcus aureus, 510, 1 h
Staphylococcus aureus [9] = test: Antimicrobial activity against methicillin-susceptible, vancomycin-susceptible Staphylococcus aureus ATCC 29213 assessed as time required to induce sub-MIC effect at 0.3 times MIC after 1 hr by plate counting method; details: ATCC 29213, 1 h
Staphylococcus aureus [10] = test: Antimicrobial activity against methicillin-susceptible, vancomycin-susceptible Staphylococcus aureus sox1 assessed as time required to induce sub-MIC effect at 0.3 times MIC after 1 hr by plate counting method; details: sox1, 1 h
Staphylococcus aureus [11] = test: Antimicrobial activity against methicillin-resistant, vancomycin-resistant Staphylococcus aureus 770 assessed as time required to induce sub-MIC effect at 0.3 times MIC after 1 hr by plate counting method; details: Staphylococcus aureus, 770, 1 h
Staphylococcus aureus [12] = test: Antimicrobial activity against methicillin-resistant, vancomycin-intermediate Staphylococcus aureus 510 assessed as time required to induce sub-MIC effect at 0.3 times MIC after 1 hr by plate counting method; details: Staphylococcus aureus, 510, 1 h
Enterococcus faecalis [13] = test: Antimicrobial activity against vancomycin-sensitive Enterococcus faecalis ATCC 29212 assessed as time required to induce sub-MIC effect at 0.3 times MIC after 1 hr by plate counting method; details: ATCC 29212, 1 h
Streptococcus pneumoniae [14] = test: Antimicrobial activity against Penicillin-susceptible Streptococcus pneumoniae s502 assessed as time required to induce post antibiotic sub-MIC effect at 0.3 times MIC after 1 hr by plate counting method; details: s502, 1 h
Streptococcus pneumoniae [15] = test: Antimicrobial activity against Penicillin-susceptible Streptococcus pneumoniae ATCC 49617 assessed as time required to induce post antibiotic sub-MIC effect at 0.3 times MIC after 1 hr by plate counting method; details: ATCC 49617, 1 h
Streptococcus pneumoniae [16] = test: Antimicrobial activity against Penicillin-intermediate Streptococcus pneumoniae s1234 assessed as time required to induce post antibiotic sub-MIC effect at 0.3 times MIC after 1 hr by plate counting method; details: s1234, 1 h
Staphylococcus aureus [17] = test: Antimicrobial activity against methicillin-susceptible, vancomycin-susceptible Staphylococcus aureus ATCC 29213 assessed as time required to induce post antibiotic sub-MIC effect at 0.3 times MIC after 1 hr by plate counting method; details: ATCC 29213, 1 h
Enterococcus faecalis [18] = test: Antimicrobial activity against vancomycin-sensitive Enterococcus faecalis 20 assessed as time required to induce post antibiotic sub-MIC effect at 0.3 times MIC after 1 hr by plate counting method; details: Enterococcus faecalis, 20, 1 h
Streptococcus pneumoniae [19] = test: Antimicrobial activity against Penicillin-susceptible Streptococcus pneumoniae ATCC 49617 assessed as time required to induce sub-MIC effect at 0.4 times MIC after 1 hr by plate counting method; details: ATCC 49617, 1 h
Streptococcus pneumoniae [20] = test: Antimicrobial activity against Penicillin-, erythromycin-resistant Streptococcus pneumoniae 37 assessed as time required to induce post antibiotic sub-MIC effect at 0.4 times MIC after 1 hr by plate counting method; details: Streptococcus pneumoniae, 37, 1 h
Staphylococcus aureus [21] = test: Antimicrobial activity against methicillin-susceptible, vancomycin-susceptible Staphylococcus aureus ATCC 29213 assessed as time required to induce post antibiotic sub-MIC effect at 0.4 times MIC after 1 hr by plate counting method; details: ATCC 29213, 1 h
Staphylococcus aureus [22] = test: Antimicrobial activity against methicillin-susceptible, vancomycin-susceptible Staphylococcus aureus sox1 assessed as time required to induce post antibiotic sub-MIC effect at 0.4 times MIC after 1 hr by plate counting method; details: sox1, 1 h
Staphylococcus aureus [23] = test: Antimicrobial activity against methicillin-resistant, vancomycin-hetroresistant Staphylococcus aureus 618 assessed as time required to induce post antibiotic sub-MIC effect at 0.4 times MIC after 1 hr by plate counting method; details: Staphylococcus aureus, 618, 1 h
Enterococcus faecalis [24] = test: Antimicrobial activity against vancomycin-sensitive Enterococcus faecalis 10 assessed as time required to induce post antibiotic sub-MIC effect at 0.4 times MIC after 1 hr by plate counting method; details: Enterococcus faecalis, 10, 1 h
Streptococcus pneumoniae [25] = test: Antimicrobial activity against Penicillin-susceptible Streptococcus pneumoniae s502 by microdilution method
Streptococcus pneumoniae [26] = test: Antimicrobial activity against Penicillin-susceptible Streptococcus pneumoniae ATCC 49617 by microdilution method
Streptococcus pneumoniae [27] = test: Antimicrobial activity against Penicillin-intermediate Streptococcus pneumoniae s1234 by microdilution method
Staphylococcus aureus [28] = test: Antimicrobial activity against methicillin-resistant, vancomycin-resistant Staphylococcus aureus 770 by microdilution method
Staphylococcus aureus [29] = test: Antimicrobial activity against methicillin-resistant, vancomycin-intermediate Staphylococcus aureus 510 by microdilution method
Streptococcus pneumoniae [30] = test: Antimicrobial activity against Penicillin-susceptible Streptococcus pneumoniae s502 assessed as post antibiotic effect at 10 times MIC after 1 hr by plate counting method; details: s502, 1 h
Staphylococcus aureus [31] = test: Antimicrobial activity against methicillin-susceptible, vancomycin-susceptible Staphylococcus aureus ATCC 29213 assessed as post antibiotic effect at 10 times MIC after 1 hr by plate counting method; details: ATCC 29213, 1 h
Staphylococcus aureus [32] = test: Antimicrobial activity against methicillin-resistant, vancomycin-susceptible Staphylococcus aureus vs1 assessed as post antibiotic effect at 10 times MIC after 1 hr by plate counting method; details: vs1, 1 h
Staphylococcus aureus [33] = test: Antimicrobial activity against methicillin-resistant, vancomycin-resistant Staphylococcus aureus 770 assessed as post antibiotic effect at 10 times MIC after 1 hr by plate counting method; details: Staphylococcus aureus, 770, 1 h
Staphylococcus aureus [34] = test: Antimicrobial activity against methicillin-resistant, vancomycin-intermediate Staphylococcus aureus 510 assessed as post antibiotic effect at 10 times MIC after 1 hr by plate counting method; details: Staphylococcus aureus, 510, 1 h
Enterococcus faecalis [35] = test: Antimicrobial activity against vancomycin-sensitive Enterococcus faecalis 10 assessed as post antibiotic effect at 10 times MIC after 1 hr by plate counting method; details: Enterococcus faecalis, 10, 1 h

## CCO/N=C(\C(=O)N[C@@H]1C(=O)N2C(C(=O)[O-])=C(Sc3nc(-c4cc[n+](C)cc4)cs3)CS[C@H]12)c1nsc(NP(=O)(O)O)n1 [CEFTAROLINE FOSAMIL]
Staphylococcus aureus [1]
  time: 0.4 h
Enterococcus faecalis [2]
  time: 0.9 h
Enterococcus faecalis [3]
  PAE: 3.1 h
Enterococcus faecalis [4]
  time: 1.4 h
Streptococcus pneumoniae [5]
  PAE: 2.7 h
Streptococcus pneumoniae [6]
  time: 1.9 h
Staphylococcus aureus [7]
  time: 2.2 h
Staphylococcus aureus [8]
  time: 5.4 h
Staphylococcus aureus [9]
  PAE: 0.8 h
Staphylococcus aureus [10]
  PAE: 0.9 h
Staphylococcus aureus [11]
  time: 0.5 h
Staphylococcus aureus [12]
  time: 0.7 h
Enterococcus faecalis [13]
  PAE: 3.6 h
Streptococcus pneumoniae [14]
  PAE: 3.5 h
Streptococcus pneumoniae [15]
  PAE: 5.9 h
Streptococcus pneumoniae [16]
  PAE: 1.8 h
Staphylococcus aureus [17]
  PAE: 4.5 h
Enterococcus faecalis [18]
  PAE: 8.6 h
Streptococcus pneumoniae [19]
  PAE: 0.8 h
Streptococcus pneumoniae [20]
  time: 3.7 h
Staphylococcus aureus [21]
  PAE: > 10.5 h
Staphylococcus aureus [22]
  PAE: 6.2 h
Staphylococcus aureus [23]
  time: 2.9 h
Enterococcus faecalis [24]
  PAE: 8.5 h
Streptococcus pneumoniae [25]
  MIC: 8 ng/mL (≈ 0.0117 µM)
Streptococcus pneumoniae [26]
  MIC: 0.016 µg/mL (≈ 0.0234 µM)
Streptococcus pneumoniae [27]
  MIC: 0.12 µg/mL (≈ 0.175 µM)
Staphylococcus aureus [28]
  MIC: 1 µg/mL (≈ 1.46 µM)
Staphylococcus aureus [29]
  MIC: 0.5 µg/mL (≈ 0.73 µM)
Streptococcus pneumoniae [30]
  PAE: 1.8 h
Staphylococcus aureus [31]
  PAE: 1 h
Staphylococcus aureus [32]
  PAE: 1.2 h
Staphylococcus aureus [33]
  PAE: 1.3 h
Staphylococcus aureus [34]
  PAE: 1.4 h
Enterococcus faecalis [35]
  PAE: 0.5 h
